Test results reported in ChEMBL document CHEMBL5260848, “Recent advancements in the development of bioactive pyrazoline derivatives” (Eur J Med Chem, 2020).
≈ marks a conversion by molar mass, not a printed value.

Assays:
A549 = experiment: Cytotoxicity against human A549 cells assessed as reduction in cell viability; assay type: functional, cell-based
Plasmodium falciparum = experiment: Antimalarial activity against chloroquine-sensitive Plasmodium falciparum 3D7; assay type: functional, organism-based
Escherichia coli [1] = experiment: Antibacterial activity against Escherichia coli assessed as inhibition of bacterial growth; assay type: functional
Pseudomonas aeruginosa [2] = experiment: Antibacterial activity against Pseudomonas aeruginosa assessed as inhibition of bacterial growth; assay type: functional
Bacillus subtilis [3] = experiment: microbe, parasite or virus in culture
Staphylococcus aureus [4] = experiment: microbe, parasite or virus in culture
Candida albicans [5] = experiment: Antifungal activity against Candida albicans by agar dilution method; assay type: functional
Escherichia coli [6] = experiment: Antibacterial activity against Escherichia coli by agar dilution method; assay type: functional
[7] = Antioxidant activity assessed as DPPH radical scavenging activity; assay type: functional
Staphylococcus aureus [8] = experiment: Antibacterial activity against Staphylococcus aureus by agar dilution method; assay type: functional
Escherichia coli [9] = experiment: Potency index, ratio of ampicillin MIC to compound MIC for Escherichia coli by agar dilution method; assay type: functional
Bacillus subtilis [10] = experiment: Antibacterial activity against Bacillus subtilis by agar dilution method; assay type: functional
Staphylococcus aureus [11] = experiment: Potency index, ratio of ampicillin MIC to compound MIC for Staphylococcus aureus by agar dilution method; assay type: functional
Pseudomonas aeruginosa [12] = experiment: Antibacterial activity against Pseudomonas aeruginosa by agar dilution method; assay type: functional
MCF7 = experiment: cells; conditions: Homo sapiens
HeLa = experiment: Cytotoxicity against human HeLa cells assessed as reduction in cell viability; assay type: functional, cell-based
HepG2 [13] = experiment: Cytotoxicity against human HepG2 cells assessed as reduction in cell viability; assay type: functional, cell-based
Plasmodium berghei = experiment: Antimalarial activity against Plasmodium berghei infected in mouse assessed as suppression percentage at 48.46 umol/kg administered daily relative to control; assay type: functional; conditions: dose 48.46 µmol/kg
Huh-7 = experiment: Cytotoxicity against human Huh-7 cells; assay type: functional, cell-based
HepG2 [14] = experiment: Cytotoxicity against human HepG2 cells assessed as growth inhibition; assay type: functional, cell-based
Tubulin (Homo sapiens) = Tubulin (Homo sapiens) (UniProt P68371+Q9H4B7+P0DPH7+P68366+Q13509+Q71U36+P04350+Q3ZCM7+P07437+P68363+Q9BQE3+Q6PEY2+Q13885+Q9BVA1+Q9BUF5); experiment: Inhibition of tubulin polymerization (unknown origin) by fluorescence assay relative to control; assay type: protein-complex assay; conditions: concentration not given here
DU-145 = experiment: Cytotoxicity against human DU-145 cells by SRB assay; assay type: functional
HepG2 [15] = experiment: Cytotoxicity against human HepG2 cells; assay type: functional, cell-based
Streptococcus pyogenes = experiment: Antibacterial activity against Streptococcus pyogenes assessed as inhibition of microbial growth; assay type: functional
Aspergillus clavatus = experiment: Antifungal activity against Aspergillus clavatus; assay type: functional
Aspergillus niger [16] = experiment: Antifungal activity against Aspergillus niger; assay type: functional
Staphylococcus aureus [17] = experiment: Antibacterial activity against Staphylococcus aureus assessed as inhibition of microbial growth; assay type: functional
Candida albicans [18] = experiment: Antifungal activity against Candida albicans; assay type: functional
Aspergillus fumigatus = experiment: Antifungal activity against Aspergillus fumigatus incubated for 24 hrs by disc diffusion method; assay type: functional
Aspergillus niger [19] = experiment: Antifungal activity against Aspergillus niger incubated for 24 hrs by disc diffusion method; assay type: functional
Pseudomonas aeruginosa [20] = experiment: microbe, parasite or virus in culture; conditions: 24 h
Escherichia coli [21] = experiment: Antibacterial activity against Escherichia coli incubated for 24 hrs by disc diffusion method; assay type: functional
Aspergillus flavus = experiment: Antifungal activity against Aspergillus flavus incubated for 24 hrs by disc diffusion method; assay type: functional
Bacillus subtilis [22] = experiment: microbe, parasite or virus in culture; conditions: 24 h
Staphylococcus aureus [23] = experiment: microbe, parasite or virus in culture; conditions: 24 h
Candida albicans [24] = experiment: microbe, parasite or virus in culture; conditions: 24 h
Candida albicans [25] = experiment: microbe, parasite or virus in culture
Staphylococcus aureus [26] = experiment: microbe, parasite or virus in culture; remark: listed apart in the source
Escherichia coli [27] = experiment: microbe, parasite or virus in culture
Staphylococcus aureus [28] = experiment: microbe, parasite or virus in culture; remark: listed apart in the source
Aspergillus niger [29] = experiment: Antifungal activity against Aspergillus niger by agar dilution method; assay type: functional
Pseudomonas aeruginosa [30] = experiment: microbe, parasite or virus in culture
Escherichia coli [31] = experiment: microbe, parasite or virus in culture; remark: listed apart in the source
Mus musculus [32] = species: Mus musculus; experiment: Antianxiety activity in mouse assessed as increase in number of entries in different arms; assay type: functional
Mus musculus [33] = species: Mus musculus; experiment: Antidepressant activity in mouse assessed as […] by tail suspension test; assay type: functional
Mus musculus [34] = species: Mus musculus; experiment: Antidepressant activity in mouse assessed as […] by forced swimming test; assay type: functional
Rattus norvegicus = experiment: Antiinflammatory activity in carrageenan induced rat paw edema model assessed inhibition of TNF-alpha level; assay type: functional, organism-based

`COc1cc(C2CC(c3ccc(Cl)cc3)=NN2C(N)=S)cc(Br)c1O` (configuration not stated) showed an IC50 (A549) of 44.1 µM.
`COc1cc(C2CC(c3cc4ccccc4oc3=O)=NN2C(=O)c2ccncc2)cc(OC)c1OC` (configuration not stated) gave an IC50 (Plasmodium falciparum) of 9.68 µg/mL (≈ 19.9 µM).
Molecule `NC[C@H]1O[C@H](O[C@H]2[C@H](O)[C@@H](O[C@H]3O[C@H](CO)[C@@H](O)[C@H](N)[C@H]3O)[C@H](N)C[C@@H]2N)[C@H](N)[C@@H](O)[C@@H]1O` [BEKANAMYCIN] has an MIC (Escherichia coli [1]) of 1.56 µg/mL (≈ 3.23 µM), an MIC (Pseudomonas aeruginosa [2]) of 1.56 µg/mL (≈ 3.23 µM) and an MIC (Bacillus subtilis [3]) of 1.56 µg/mL (≈ 3.23 µM). It also gave an MIC (Staphylococcus aureus [4]) of 1.56 µg/mL (≈ 3.23 µM).
With `COc1ccc2c(c1)cc(C1CC(c3cc(Br)ccc3O)=NN1)c1nnnn12` (configuration not stated) the MIC (Candida albicans [5]) was 25 µg/mL (≈ 56.9 µM), the MIC (Escherichia coli [6]) was 50 µg/mL (≈ 114 µM) and the IC50 [7] was 21 µg/mL (≈ 47.8 µM). The MIC (Staphylococcus aureus [8]) was 50 µg/mL (≈ 114 µM), the Ratio (Escherichia coli [9]) was 2 and the MIC (Bacillus subtilis [10]) was 25 µg/mL (≈ 56.9 µM). For the same molecule, the Ratio (Staphylococcus aureus [11]) was 10 and the MIC (Pseudomonas aeruginosa [12]) was 25 µg/mL (≈ 56.9 µM).
`CNC(=S)N1N=C(c2nnn(-c3ccc(-n4nnc(C5=NN(C(=S)NC)C(c6ccccc6)C5)c4C)cc3)c2C)CC1c1ccccc1` (configuration not stated) showed an IC50 (MCF7) of 32.3 µg/mL (≈ 47.8 µM).
With `COc1cc(C2CC(c3ccc(F)cc3)=NN2C(N)=S)cc(OC)c1OC` (configuration not stated) the IC50 (HeLa) was 7.63 µM and the IC50 (HepG2 [13]) was 6.78 µM.
`CC(=O)N1N=C(c2ccc(Br)cc2)CC1c1cc(Cl)ccc1Oc1c([N+](=O)[O-])cc(C(F)(F)F)cc1[N+](=O)[O-]` (configuration not stated) gave an MIC (Escherichia coli [1]) of 0.39 µg/mL (≈ 0.621 µM), an MIC (Pseudomonas aeruginosa [2]) of 0.39 µg/mL (≈ 0.621 µM) and an MIC (Bacillus subtilis [3]) of 3.12 µg/mL (≈ 4.98 µM). It also gave an MIC (Staphylococcus aureus [4]) of 3.12 µg/mL (≈ 4.98 µM).
With `Cc1ccc(-c2nn(-c3ccccc3)cc2C2CC(c3cccs3)=NN2)cc1` (configuration not stated) the Activity (Plasmodium berghei) was 63.4%.
Molecule `COc1cc(C2CC(c3c4ccccc4cc4ccccc34)=NN2c2nc(-c3ccc(F)cc3)c(C#N)c(=O)[nH]2)cc(OC)c1OC` (configuration not stated) has an IC50 (Huh-7) of 4.78 µg/mL (≈ 7.64 µM).
Molecule `Fc1ccc(-c2csc(N3N=C(c4cccs4)CC3c3ccc(Cl)cc3Cl)n2)cc1` (configuration not stated) has an IC50 (HepG2 [14]) of 1.7 µM.
`COc1ccc(/C=C/C(=O)c2cc(OC)c(OC)c(OC)c2)cc1OCc1cn(Cc2ccc(F)cc2)nn1` showed an inhibition (Tubulin (Homo sapiens)) of 51% and a GI50 (DU-145) of 1.3 µM.
Work on `N#Cc1c(-c2ccc(F)cc2)nc(N2N=C(c3c4ccccc4cc4ccccc34)CC2c2ccc(F)cc2)[nH]c1=O` (configuration not stated) yielded an IC50 (Huh-7) of 6.13 µg/mL (≈ 11.1 µM) and an IC50 (HepG2 [15]) of 5.34 µg/mL (≈ 9.65 µM).
Work on `COc1ccc(/C=C/C(=O)c2cc(OC)c(OC)c(OC)c2)cc1OCc1cn(Cc2ccc(N)cc2)nn1` yielded an inhibition (Tubulin (Homo sapiens)) of 36% and a GI50 (DU-145) of 1.5 µM.
In the case of `O=C(c1ccncc1)N1N=C(c2ccc([N+](=O)[O-])cc2)CC1c1cc2ccccc2nc1Cl` (configuration not stated), the MIC (Streptococcus pyogenes) is reported as 12.5 µg/mL, the MIC (Aspergillus clavatus) is reported as 12.5 µg/mL (≈ 27.3 µM) and the MIC (Aspergillus niger [16]) is reported as 12.5 µg/mL (≈ 27.3 µM). It also gave an MIC (Staphylococcus aureus [17]) of 12.5 µg/mL and an MIC (Candida albicans [18]) of 12.5 µg/mL (≈ 27.3 µM).
In the case of `O=C1N=C(N2N=C(c3cccs3)CC2c2cc(Cl)ccc2Cl)S/C1=N/Nc1ccc(Cl)cc1` (configuration not stated), the IC50 (HepG2 [14]) is reported as 3.54 µM.
Molecule `OC(Cn1cncn1)(Cn1cncn1)c1ccc(F)cc1F` [FLUCONAZOLE] has an MIC (Aspergillus fumigatus) of 30 µg/mL (≈ 98 µM), an MIC (Aspergillus niger [19]) of 30 µg/mL (≈ 98 µM) and an MIC (Pseudomonas aeruginosa [20]) of 30 µg/mL (≈ 98 µM). For the same molecule, the MIC (Escherichia coli [21]) was 30 µg/mL (≈ 98 µM), the MIC (Aspergillus flavus) was 30 µg/mL (≈ 98 µM) and the MIC (Bacillus subtilis [22]) was 30 µg/mL (≈ 98 µM). For the same molecule, the MIC (Staphylococcus aureus [23]) was 30 µg/mL (≈ 98 µM), the MIC (Candida albicans [24]) was 30 µg/mL (≈ 98 µM) and the MIC (Candida albicans [25]) was < 10 µg/mL. The MIC (Staphylococcus aureus [26]) was < 10 µg/mL.
With `COC(=O)C1N=NN(CC(=O)N2N=C(c3ccccc3)CC2c2cccs2)C1C(=O)OC` (configuration not stated) the MIC (Escherichia coli [27]) was 3.9 µg/mL (≈ 8.56 µM) and the MIC (Staphylococcus aureus [28]) was 3.9 µg/mL (≈ 8.56 µM).
`Cc1ccc2c(c1)cc(C1CC(c3cc(Br)ccc3O)=NN1)c1nnnn12` (configuration not stated) gave an MIC (Aspergillus niger [29]) of 25 µg/mL (≈ 59.1 µM).
For `O=C(c1ccncc1)N1N=C(c2ccc(F)cc2)CC1c1cc2ccccc2nc1Cl` (configuration not stated), the MIC (Pseudomonas aeruginosa [30]) was 12.5 µg/mL (≈ 29 µM), the MIC (Escherichia coli [31]) was 12.5 µg/mL (≈ 29 µM) and the MIC (Candida albicans [18]) was 12.5 µg/mL (≈ 29 µM).
Molecule `COc1ccc(C2CC(c3ccc(O)cc3)=NN2)cc1OC` (configuration not stated) has an Activity (Mus musculus [32]) of 15.5, a Time (Mus musculus [33]) of 21.17 s and a Time (Mus musculus [34]) of 21.17 s.
For `COc1cc(/C=C/C(=O)CC(=O)/C=C/c2ccc(O)c(OC)c2)ccc1O` [CURCUMIN], the IC50 (Rattus norvegicus) was 0.0534 µM.
`COc1cc(C2CC(c3ccc(Br)cc3)=NN2C(N)=S)cc(Br)c1O` (configuration not stated) showed an IC50 (A549) of 51 µM.
